Measurements published in patent publication US20250049841A1 (priority 2021, published 2025).
Converted amounts (≈) assume the structure as drawn. “And” between values parts separate entries of the source, which are not always exact repeats. Equal entries are not always repeated. Where two headings read alike, the source gives them in different places.

Tests used:
[1] = system: SARS-CoV-2 USA_WA1/2020 strain
[2] = system: SARS-CoV-2 USA_WA1/2020 strain; remark: listed apart in the source
[3] = system: normal, human-derived tracheal/bronchial epithelial (TBE) cells; experiment: Toxicity of test compounds in the TBE tissue model (Example 1); conditions: any of the test compound concentrations
Procedure: (§1) Cell Culture: The EpiAirway™ Model consists of normal, human-derived tracheal/bronchial epithelial (TBE) cells which have been cultured to form a multi layered, highly differentiated model which closely resembles the epithelial tissue of the respiratory tract.
(§2) The TBE cells were grown on 6 mm mesh disks in transwell inserts. […] The cells have unique properties in forming layers, the apical side of which is exposed only to air and that creates a mucin layer. Upon arrival, the cell transwell inserts were immediately transferred to individual wells of a 6-well plate according to manufacturer's instructions, and 1 mL of MatTek's proprietary culture medium (AIR-100-MM) was added to the basolateral side, whereas the apical side was exposed to a humidified 5% CO2 environment. The TBE cells were cultured at 37° C. for one day before the start of the experiment. After the 24 h equilibration period, the mucin layer, secreted from the apical side of the cells, was removed by washing with 400 μL pre-warmed 30 mM HEPES buffered saline solution 3X. Culture medium was replenished following the wash steps.
(§3) Experimental design: Each 2× compound treatment (120 L) and virus (120 μL) was applied to the apical side, and 1× compound treatment only was applied to the basal side (1 mL), for a 2 h incubation. […]

[4] = system: SARS-CoV-2 (strain USA-WA1/2020); experiment: microbe, parasite or virus in culture; type: cell-based, human; conditions: Severe acute respiratory syndrome coronavirus 2, 120 h
[5] = system: Respiratory syncytial virus (RSV-A2); conditions: for SI = CC50/EC90: RSV-A2
[6] = system: Influenza A/California/7/2009 (H1N1); conditions: fresh drug on days 1 and 2; for Log10 CCID50 virus per 0.2 mL: H1N1, day 3
in vitro = conditions: human
Procedure: (§4) The amount of formazan is directly proportional to the number of living cells and the resulting colored solution is quantified by measuring absorbance at 450 nanometers using a multi-well spectrophotometer. Drug concentrations of 2 mg/ml and 1 mg/ml were tested in duplicate wells, and a drug concentration of 0.5 mg/ml was tested in singlet wells. On day 3 (H1N1) or day 6 (RSV), the apical side was washed one time with 400 μL pre-warmed PBS. The CCK-8 solution was added (200 L) to the apical side and incubated at 37° C. for 2 hours. The formazan (100 l) was placed into a 96-well plate and the 450 nm absorbance was recorded. Percent toxicity values were calculated as a percentage of the cell control test wells (no drug treatment) and reported as the 50% cell cytotoxic concentration (CC50) of compound (no virus). Tissues were also observed via microscopy to assess cytotoxicity.

[7] = system: Respiratory syncytial virus (RSV-A2); experiment: microbe, parasite or virus in culture; conditions: human respiratory syncytial virus, read-out: EC90 (VYR 90% effective concentration)
[8] = system: Influenza A/California/7/2009 (H1N1); experiment: microbe, parasite or virus in culture; conditions: H1N1, in Homo sapiens, read-out: EC90 (VYR 90% effective concentration)
[9] = system: normal, human-derived tracheal/bronchial epithelial (TBE) cells
Procedure: as §1, §2, §3

[10] = system: SARS-CoV-2 USA_WA1/2020 strain; conditions: hamster, in vivo
[11] = system: normal, human-derived tracheal/bronchial epithelial (TBE) cells; remark: listed apart in the source
Procedure: as §4

[12] = 200 mg/kg/d b.i.d. PO, individual animals
[13] = 500 mg/kg/d b.i.d. PO, individual animals

CC(C)C(=O)OC[C@H]1O[C@@H](n2ccc(NO)nc2=O)[C@H](O)[C@@H]1O [EIDD-2801]
effect on lung weights ([1]; 200 mg/kg/d PO): not significantly affected
effect on weight loss (percent initial body weight) ([1]; 200 mg/kg/d PO, P<0.01 vs placebo): prevented weight loss
effect on oropharyngeal swab virus titers ([1]; 200 mg/kg/d PO, any day post-infection): did not reduce
effect on lung virus titers ([1]; 200 mg/kg/d PO, day 6 post-infection, P<0.0001 vs placebo): reduced lung virus titers
effect on nasal tissue virus titers ([1]; 200 mg/kg/d PO, vs placebo): did not significantly reduce
Oropharyngeal swab Virus Titer, Day Post-Infection 5 [1, 12]: 2.0 CCID50/mL (Log10) and <0.7 CCID50/mL (Log10) (3×) and 1.7 CCID50/mL (Log10)
Oropharyngeal swab Virus Titer, Day Post-Infection 6 [1, 12]: <0.7 CCID50/mL (Log10)
Virus Titer, Lung tissue, Day 6 [1, 12]: <0.7 CCID50/mL (Log10)
reduction in lung virus titers, day 3 post-infection ([2]; 500 mg/kg/d PO): one
effect on nasal tissue virus titers ([2]; 500 mg/kg/d PO, FIG. 21, once daily comparison): did not significantly reduce
effect on lung weights ([2]; 500 mg/kg/d PO, FIG. 22): did not significantly reduce
effect on nasal tissue virus titers, day 3 post-infection ([2]; 500 mg/kg/d PO, FIG. 25, twice daily comparison, P<0.01): significantly reduced
effect on lung weights, Day 6 ([2]; 500 mg/kg/d PO, FIG. 26): significantly affected
effect on lung virus titers, day 3 post-infection ([2]; 500 mg/kg/d PO, P<0.01 vs placebo): significantly reduced
Virus Titer, Lung tissue, Day 6 [2, 13]: <0.7 CCID50/mL (Log10)
Virus Titer, Nasal tissue, Day 6 [2, 13]: <0.7 CCID50/mL (Log10) (4×) and 1.7 CCID50/mL (Log10)

CO[Si](CCCN(C)[N+]([O-])=NO)(OC)OC [MAP3-NONOate, N, N-methylaminopropyl diazeniumdiolate trimethoxysilane]
toxicity [3]: No toxicity was observed

CCC(CC)COC(=O)[C@H](C)N[P@](=O)(OC[C@H]1O[C@@](C#N)(c2ccc3c(N)ncnn23)[C@H](O)[C@@H]1O)Oc1ccccc1 [Remdesivir]
EC90 ([4]; read-out: EC90 (Titer 1)): 0.0065 µg/mL (≈ 0.0108 µM)
EC90 ([4]; read-out: EC90 (Titer Avg.)): 0.0065 µg/mL (≈ 0.0108 µM)

NC(=O)c1ncn([C@@H]2O[C@H](CO)[C@@H](O)[C@H]2O)n1 [Ribavirin]
EC90 (VYR 90% effective concentration) [5]: 4.6 µg/mL (≈ 18.8 µM)
SI = CC50/EC90 ([5]; fresh drug on days 1, 2, and 5): >19.54
SI = CC50/EC90 ([5]; fresh drug on days 1-5): >21.7
Log10 CCID50 virus per 0.2 mL ([6]; concentration 1 μg/ml): 6.50 Log10 CCID50 virus per 0.2 mL
Log10 CCID50 virus per 0.2 mL ([6]; concentration 10 μg/ml): 4.00 Log10 CCID50 virus per 0.2 mL
Log10 CCID50 virus per 0.2 mL ([6]; concentration 100 μg/ml): 2.67 Log10 CCID50 virus per 0.2 mL
SI = CC50/EC90 ([6]; H1N1): >52.9
CC50 (in vitro): > 100 µg/mL
CC50 at 6 days (in vitro): > 100 µg/mL
EC90 [7]: 5.12 µg/mL (≈ 21 µM)
EC90 [8]: 1.89 µg/mL (≈ 7.74 µM)

berdazimer sodium
toxicity [9]: No toxicity was observed
adverse events ([1]; hamster, in vivo, 2 mg/kg/day): No adverse events were observed
premature deaths [10]: no premature deaths were observed
deaths ([2]; hamster, in vivo): two of the ten animals
cytotoxicity, tissues observed under the microscope [11]: no overt cytotoxicity
